Measurements reported in ChEMBL document CHEMBL4425194, “Synthesis and biological evaluation of novel imidazol-1-ylacetic acid derivatives as non-brain penetrant bombesin receptor subtype-3 (BRS-3) agonists” (Bioorg Med Chem Lett, 2016).
Values after ≈ are worked out from the molar mass of the structure shown. Active and inactive are the calls of the source. No cut-off for these calls is given here.

How the values were obtained:
[1] = biological target: T1, Bombesin receptor subtype-3 (Mus musculus, UniProt O54798); assay: Agonist activity at mouse BRS3 expressed in CHOK1 cells measured after 1 hrs by IP-One HTRF assay; assay type: cell-based
T1 sequence (O54798 whole entry): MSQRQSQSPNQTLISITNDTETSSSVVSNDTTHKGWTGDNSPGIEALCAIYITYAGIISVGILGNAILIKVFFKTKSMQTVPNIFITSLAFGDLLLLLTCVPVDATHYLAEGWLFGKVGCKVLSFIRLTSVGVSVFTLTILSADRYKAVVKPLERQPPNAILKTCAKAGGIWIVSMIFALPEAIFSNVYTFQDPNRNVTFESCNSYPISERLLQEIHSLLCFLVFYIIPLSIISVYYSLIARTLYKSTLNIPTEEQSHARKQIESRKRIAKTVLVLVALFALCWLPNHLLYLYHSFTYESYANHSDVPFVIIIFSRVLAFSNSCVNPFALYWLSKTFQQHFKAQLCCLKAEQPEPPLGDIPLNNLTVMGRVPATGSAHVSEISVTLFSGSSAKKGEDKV

[2] = biological target: T2, Bombesin receptor subtype-3 (Homo sapiens, UniProt P32247); assay: Agonist activity at human BRS3 expressed in CHOK1 cells measured after 1 hrs by IP-One HTRF assay; assay type: cell-based
T2 sequence (P32247 whole entry): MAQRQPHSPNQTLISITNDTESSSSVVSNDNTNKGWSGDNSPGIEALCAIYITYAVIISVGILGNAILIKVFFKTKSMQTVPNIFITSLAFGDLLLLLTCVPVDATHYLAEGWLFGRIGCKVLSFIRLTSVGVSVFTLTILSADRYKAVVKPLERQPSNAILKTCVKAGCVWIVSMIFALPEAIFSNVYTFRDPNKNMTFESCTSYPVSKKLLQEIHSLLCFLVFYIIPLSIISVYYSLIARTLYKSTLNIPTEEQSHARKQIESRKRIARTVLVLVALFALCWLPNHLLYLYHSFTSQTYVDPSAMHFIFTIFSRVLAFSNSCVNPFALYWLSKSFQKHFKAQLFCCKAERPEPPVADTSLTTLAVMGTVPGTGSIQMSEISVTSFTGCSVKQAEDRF

[3] = Drug uptake in mouse brain assessed as active compound level at 10 mg/kg, iv administered as infusion measured after 30 or 60 mins; assay type: ADME, organism-based; conditions: 1 h
[4] = Drug uptake in mouse brain assessed as metabolite level at 3 mg/kg, iv administered as infusion measured after 30 or 60 mins; assay type: ADME, organism-based; conditions: 1 h
[5] = Drug uptake in mouse brain assessed as active compound level at 3 mg/kg, iv administered as infusion measured after 30 or 60 mins; assay type: ADME, organism-based; conditions: 1 h
[6] = Drug uptake in mouse plasma assessed as ratio of active compound to metabolite at 3 mg/kg, iv administered as infusion measured after 30 or 60 mins; assay type: ADME, organism-based; conditions: in vivo, 1 h, pooled result: one value given for 2 cell lines, strains, targets or settings
[7] = Drug uptake in mouse brain assessed as metabolite level at 10 mg/kg, iv administered as infusion measured after 30 or 60 mins; assay type: ADME, organism-based; conditions: 1 h
[8] = Plasma concentration in halothane anesthetized dog at 3 mg/kg/ml, iv measured after 60 mins; assay type: ADME, organism-based, Canis lupus familiaris
[9] = Solubility of the compound in JP2 at pH 6.8; assay type: physicochemical; conditions: JP2, pH 6.8
[10] = Cmax in halothane anesthetized dog showing 100.9% increase in heart rate at 3 mg/kg/ml, iv measured after 30 mins; assay type: ADME, organism-based, Canis lupus familiaris; set-up: dose 3 mg/kg, route intravenous; conditions: in vivo
[11] = Plasma concentration in halothane anesthetized dog at 3 mg/kg/ml, iv measured after 30 mins; assay type: ADME, organism-based, Canis lupus familiaris
[12] = Fraction unbound in mouse plasma; assay type: ADME, cell-free
[13] = Cmax in halothane anesthetized dog not showing increase in heart rate at 3 mg/kg/ml, iv measured after 30 mins; assay type: ADME, organism-based, Canis lupus familiaris; set-up: dose 3 mg/kg, route intravenous; conditions: in vivo
[14] = Octanol-water distribution coefficient, log D of the compound in PBS buffer at pH 7.4; assay type: physicochemical
[15] = Solubility of the compound in JP1 at pH 1.2; assay type: physicochemical; conditions: JP1, pH 1.2
[16] = Cardiotoxicity in halothane anesthetized dog assessed as effect on blood pressure at 3 mg/kg/ml, iv measured after 30 mins; assay type: toxicity, organism-based, Canis lupus familiaris; conditions: in vivo, 0.5 h
Mus musculus [17] = assay: Antiobesity activity in po dosed C57BL/6N mouse assessed as anorectic effect measured after 1 hr; assay type: functional, organism-based
Mus musculus [18] = organism: Mus musculus; assay: Antiobesity activity in BRS3-deficient C57BL/6N mouse assessed as anorectic effect measured after 1 hr; assay type: functional, organism-based
Mus musculus [19] = assay: Antiobesity activity in C57BL/6N mouse assessed as reduction in food intake at 30 mg/kg, po measured after 1 hr; assay type: functional; set-up: scale not given: the % may be the effect or the level left

Row | EC50 [1] [nM] | EC50 [2] [nM] | SMILES | further results
1 | 61 | 11 | CC(C)(C)Cc1cnc(CCc2ccc(-c3cccc(F)c3C(=O)O)cc2)n1CCC(=O)O | 
2 | 7 | 11 | COC(=O)c1c(F)cccc1-c1ccc(CCc2ncc(CC(C)(C)C)n2CCNS(C)(=O)=O)cc1 | Kp [3]: 0.02; Kp [4]: 0.02; Kp [5]: 0.02; Ratio [6]: 2.3; Kp [7]: 0.02
3 | 621 | > 10000 | COC(=O)C(C)(C)Oc1ccc(CCc2ncc(CC(C)(C)C)[nH]2)cc1 | 
4 | 3 | 1 | COC(=O)c1c(F)cccc1-c1ccc(CCc2ncc(CC(C)(C)C)n2CCC(=O)O)cc1 | Kp [3]: 0.02; Kp [5]: 0.02; Ratio [6]: 1.3
5 | 13 | 12 | CC(C)(C)Cc1cnc(CCc2ccc(-c3cccc(F)c3C(=O)O)cc2)n1Cc1ccc(C(=O)O)cc1 | 
6 | > 10000 | > 10000 | COC(=O)c1ccccc1-c1ccc(CCCc2ncc(CC(C)(C)C)[nH]2)cc1 | 
7 | 24 | 21 | COC(=O)c1c(F)cccc1-c1ccc(CCc2ncc(CC(C)(C)C)n2CCO)cc1 | 
8 | 1910 | 4080 | CCC(C)(C)Cc1cn(CC(=O)O)c(CCc2ccc(-c3ccccn3)cc2)n1 | 
9 | 140 | 69 | CC(C)(C)Cc1cnc(CCc2ccc(-c3cccc(F)c3C(=O)O)cc2)n1CC(=O)O | concentration at 1 h [8]: 1.09 µM; solubility [9]: > 870 µg/mL; Cmax [10]: 4.2 µM; concentration at 0.5 h [11]: 20.1 µM; fraction unbound [12]: 0.181; Cmax [13]: 38.1 µM; logD [14]: < -1.8; solubility [15]: > 870 µg/mL
10 | 4 | 2 | CC(C)(C)Cc1cnc(CCc2ccc(-c3cccc(F)c3C(=O)O)cc2)n1CCNS(C)(=O)=O | 
11 | 44 | 39 | COC(=O)c1c(F)cccc1-c1ccc(CCc2ncc(CC(C)(C)C)n2CC(=O)O)cc1 | concentration at 1 h [8]: 1.14 µM; solubility [9]: 370 µg/mL (≈ 818 µM); Cmax [10]: 16.8 µM; concentration at 0.5 h [11]: 28.2 µM; fraction unbound [12]: 0.0167; Activity [16]: Non-Toxic; Activity (Mus musculus [17]): Dose-dependent effect; Cmax [13]: 44.3 µM; logD [14]: 2; solubility [15]: 730 µg/mL (≈ 1610 µM); Activity (Mus musculus [18]): inactive; Activity (Mus musculus [19]): 20%; Ratio [6]: 1.31
12 | 2 | 3 | CC(C)(C)Cc1cnc(CCc2ccc(-c3cccc(F)c3C(=O)O)cc2)n1CCO | 
13 | 5 | 3 | COC(=O)c1c(F)cccc1-c1ccc(CCc2ncc(CC(C)(C)C)n2Cc2ccc(C(=O)O)cc2)cc1 | 
14 | 9910 | 2230 | COC(=O)C(C)(C)c1ccc(CCc2ncc(CC(C)(C)C)[nH]2)cc1 | 
15 | 694 | 968 | COC(=O)c1ccccc1-c1ccc(CCc2ncc(CC(C)(C)C)n2CC(=O)O)cc1 | 
16 | 26 | 42 | CCC(C)(C)Cc1cnc(CCc2ccc(-c3ccccn3)cc2)n1CC(=O)O | 
17 | 0.8 | 0.9 | CC(C)(C)Cc1cnc(CCc2ccc(-c3cccc(F)c3C(=O)O)cc2)n1CCOc1cccc(O)c1 | 
18 | 498 | 644 | COC(=O)c1ccccc1-c1ccc(CCc2ncc(CC(C)(C)C)[nH]2)cc1 | 
19 | 25 | 13 | COC(=O)c1c(F)cccc1-c1ccc(CCc2ncc(CC(C)(C)C)n2CCOc2cccc(O)c2)cc1 | Kp [3]: 0.05; Kp [4]: 0.31; Kp [5]: 0.05; Ratio [6]: 2.49; Kp [7]: 0.31
20 | 1270 | 897 | CC(C)(C)Cc1cnc(CCc2ccc(-c3ccccc3C(=O)O)cc2)n1CC(=O)O | 
